US9707233B2, “Heterocyclylamines as PI3K inhibitors” (Incyte Corporation, priority 2011, dated 2017)

Molecular target: PI3Kδ (p110δ/p85α) (Homo sapiens (Human), UniProt O00329)
Test: PI3Kδ scintillation proximity assay (Example A3)
Format: biochemical
Conditions: 20 μM ATP, 20 μM PIP2, 4 nM PI3Kδ; read-out: PI3Kδ SPA IC50
Method in brief: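 IC50 derived by fitting percent control activity against log inhibitor concentration. Radiolabelled product was measured by scintillation counting on WGA SPA beads after overnight shaking. The kinase reaction used 4 nM p110δ/p85α, 20 μM ATP (with [γ-33P]ATP) and 20 μM PIP2 at pH 6.7 and room temperature, with 0.5% DMSO final.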

Sequence of PI3Kδ (p110δ/p85α) (O00329 whole entry): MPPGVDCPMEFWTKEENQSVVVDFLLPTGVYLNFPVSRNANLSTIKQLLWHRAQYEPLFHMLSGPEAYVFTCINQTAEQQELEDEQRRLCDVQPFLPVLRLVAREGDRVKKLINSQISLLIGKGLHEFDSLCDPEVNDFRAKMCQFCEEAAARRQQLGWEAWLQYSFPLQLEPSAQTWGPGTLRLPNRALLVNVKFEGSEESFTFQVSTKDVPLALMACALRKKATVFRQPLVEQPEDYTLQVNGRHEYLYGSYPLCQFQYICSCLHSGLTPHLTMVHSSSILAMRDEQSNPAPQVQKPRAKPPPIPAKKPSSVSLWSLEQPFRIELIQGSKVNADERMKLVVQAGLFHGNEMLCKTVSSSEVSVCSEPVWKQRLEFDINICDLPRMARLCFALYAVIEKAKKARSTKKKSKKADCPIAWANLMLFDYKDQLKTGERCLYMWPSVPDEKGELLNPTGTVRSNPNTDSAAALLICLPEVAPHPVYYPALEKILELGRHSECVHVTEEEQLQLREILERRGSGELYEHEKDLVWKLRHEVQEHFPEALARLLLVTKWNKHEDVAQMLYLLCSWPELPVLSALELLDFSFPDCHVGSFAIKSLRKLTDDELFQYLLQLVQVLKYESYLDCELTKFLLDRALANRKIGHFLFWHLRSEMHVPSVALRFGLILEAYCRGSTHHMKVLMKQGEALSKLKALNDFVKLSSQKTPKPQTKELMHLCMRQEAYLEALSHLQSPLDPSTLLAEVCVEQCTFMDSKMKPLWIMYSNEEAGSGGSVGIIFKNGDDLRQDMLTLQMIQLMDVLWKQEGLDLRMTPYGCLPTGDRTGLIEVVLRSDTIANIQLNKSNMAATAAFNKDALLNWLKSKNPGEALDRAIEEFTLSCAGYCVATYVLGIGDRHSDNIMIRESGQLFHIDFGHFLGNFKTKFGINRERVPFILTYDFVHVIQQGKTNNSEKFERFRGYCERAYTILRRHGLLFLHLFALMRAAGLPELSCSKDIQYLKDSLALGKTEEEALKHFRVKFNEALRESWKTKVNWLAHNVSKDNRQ
Sequence of PI3Kδ (p110δ/p85α) (P27986 whole entry partner): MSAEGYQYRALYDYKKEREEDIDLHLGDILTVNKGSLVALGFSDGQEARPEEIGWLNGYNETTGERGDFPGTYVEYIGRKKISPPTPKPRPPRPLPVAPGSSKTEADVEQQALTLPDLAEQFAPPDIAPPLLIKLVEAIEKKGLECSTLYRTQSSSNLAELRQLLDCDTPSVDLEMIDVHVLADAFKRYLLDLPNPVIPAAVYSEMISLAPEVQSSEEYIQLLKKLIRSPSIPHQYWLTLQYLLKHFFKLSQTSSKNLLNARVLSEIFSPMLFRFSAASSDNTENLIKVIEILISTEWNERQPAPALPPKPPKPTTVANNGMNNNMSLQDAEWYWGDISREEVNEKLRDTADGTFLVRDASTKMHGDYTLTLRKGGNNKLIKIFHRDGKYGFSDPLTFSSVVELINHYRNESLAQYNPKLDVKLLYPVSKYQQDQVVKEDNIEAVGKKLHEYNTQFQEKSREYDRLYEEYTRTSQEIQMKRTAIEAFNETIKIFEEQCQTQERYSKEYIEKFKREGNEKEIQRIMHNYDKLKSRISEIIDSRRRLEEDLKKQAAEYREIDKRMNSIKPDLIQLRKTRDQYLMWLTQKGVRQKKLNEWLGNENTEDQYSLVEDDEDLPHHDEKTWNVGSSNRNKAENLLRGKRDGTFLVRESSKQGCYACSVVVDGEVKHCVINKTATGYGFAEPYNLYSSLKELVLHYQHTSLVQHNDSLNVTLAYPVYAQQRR

| SMILES | IC50 |
| --- | --- |
| CCOc1c(C(C)n2nc(C)c3c(N)ncnc32)cc(Cl)c(C#N)c1C1CNC(=O)C1 (single isomer, unassigned) [Example 350, 4-[1-(4-amino-3-methyl-1H-pyrazolo[3,4-d]pyrimidin-1-yl)ethyl]-6-chloro-3-ethoxy-2-(5-oxopyrrolidin-3-yl)benzonitrile] | > 500 nM |
| CCOc1c(C(C)n2nc(C)c3c(N)ncnc32)cc(Cl)c(C#N)c1C1CN(C(N)=O)C1 (single isomer, unassigned) [Example 256, 3-{3-[1-(4-Amino-3-methyl-1H-pyrazolo[3,4-d]pyrimidin-1-yl)ethyl]-5-chloro-6-cyano-2-ethoxyphenyl}azetidine-1-carboxamide] | ≤ 10 nM |
| COc1c(C(C)n2nc(C)c3c(N)ncnc32)cc(Cl)c(C)c1C1CN(C(C)C)C1 (single isomer, unassigned) [Example 1, 1-{1-[5-Chloro-3-(1-isopropylazetidin-3-yl)-2-methoxy-4-methylphenyl]ethyl}-3-methyl-1H-pyrazolo[3,4-d]pyrimidin-4-amine bis(trifluoroacetate)] | ≤ 10 nM |
| COc1c(C(C)n2ccc(=O)c3c(N)ncnc32)cc(Cl)c(C)c1-c1cncc(C#N)c1 (racemic) [Example 27, 5-{3-[1-(4-Amino-5-oxopyrido[2,3-d]pyrimidin-8(5H)-yl)ethyl]-5-chloro-2-methoxy-6-methylphenyl}nicotinonitrile bis(trifluoroacetate)] | ≤ 10 nM |
| CCOc1c(C(C)n2nc(C)c3c(N)ncnc32)cc(Cl)c(C#N)c1C1CN(C(=O)NC(C)(C)C)C1 (single isomer, unassigned) [Example 255, 3-{3-[1-(4-Amino-3-methyl-1H-pyrazolo[3,4-d]pyrimidin-1-yl)ethyl]-5-chloro-6-cyano-2-ethoxyphenyl}-N-(tert-butyl)azetidine-1-carboxamide] | ≤ 10 nM |
| CCOc1c(C(C)n2nc(C)c3c(N)ncnc32)cc(Cl)c(C#N)c1C1CNC(=O)O1 (stereo not drawn) [323 (2nd peak), 4-[1-(4-amino-3-methyl-1H-pyrazolo[3,4-d]pyrimidin-1-yl)ethyl]-6-chloro-3-ethoxy-2-(2-oxo-1,3-oxazolidin-5-yl)benzonitrile] | ≤ 10 nM |
| COc1c(C(C)n2nc(C)c3c(N)ncnc32)cc(Cl)c(C)c1-c1cncc(C#N)c1 (single isomer, unassigned) [Example 170, 5-(3-(1-(4-amino-3-methyl-1H-pyrazolo[3,4-d]pyrimidin-1-yl)ethyl)-5-chloro-2-methoxy-6-methylphenyl)nicotinonitrile] | ≤ 10 nM |
| CCOc1c(C(C)n2nc(C)c3c(N)ncnc32)cc(C)c(C#N)c1C1CN(CC(C)O)C1 (stereo in doubt) [Example 326, 4-[1-(4-amino-3-methyl-1H-pyrazolo[3,4-d]pyrimidin-1-yl)ethyl]-3-ethoxy-2-{1-[(2S)-2-hydroxypropyl]azetidin-3-yl}-6-methylbenzonitrile] | ≤ 10 nM |
| COc1c(C(C)n2ncc3c(N)ncnc32)cc(Cl)c(C)c1-c1ccnc(C(=O)N(C)C)c1 (racemic) [Example 38, 4-{3-[1-(4-amino-1H-pyrazolo[3,4-d]pyrimidin-1-yl)ethyl]-5-chloro-2-methoxy-6-methylphenyl}-N,N-dimethylpyridine-2-carboxamide] | 10 to 50 nM |
| CCOc1c(C(C)n2nc(C)c3c(N)ncnc32)cc(Cl)c(F)c1C1CN(CCO)C1 (centres unmarked) [Example 144, 2-(3-{3-[1-(4-Amino-3-methyl-1H-pyrazolo[3,4-d]pyrimidin-1-yl)ethyl]-5-chloro-2-ethoxy-6-fluorophenyl}azetidin-1-yl)ethanol] | ≤ 10 nM |
| COc1c(C(C)n2nc(C)c3c(N)ncnc32)cc(Cl)c(C)c1C1CNC(=O)CO1 (single isomer, unassigned) [324 (2nd peak), 6-{3-[1-(4-Amino-3-methyl-1H-pyrazolo[3,4-d]pyrimidin-1-yl)ethyl]-5-chloro-2-methoxy-6-methylphenyl}morpholin-3-one] | ≤ 10 nM |
